From patent US7576107B2 (dated 2009)

melting point: 164 °C
SMILES: COCCNc1c(S(=O)(=O)C(F)(F)F)c(C#N)nn1-c1c(Cl)cc(C(F)(F)F)cc1Cl
